# Columns and labels:
# [1] = Sprague-Dawley rat pharmacokinetics (IV and PO); type: in vivo; settings: male Sprague-Dawley rats, cassette mode, Method 1; for IV T1/2: IV 1 mg/kg; for PO F (%) / bioavailability: PO 5 mg/kg (IV 1 mg/kg); for bioavailability: rat, plasma, read-out: PO F (%)
# Description: BET protein inhibitors with a long half-life and good oral bioavailability in in vivo DMPK parameters are promising oral drug candidates. Some of the exemplary compounds of the current disclosure have a long half-life and good oral bioavailability in in vivo DMPK parameters in the Sprague-Dawley rat following intravenous (IV) and oral (PO) dosing. The experimental methods and results (Table 5) are provided hereinafter.
# Sprague-Dawley Rat Pharmacokinetics, Method 1
# Compounds were formulated in 5% DMSO, 40% PEG-400, 55% Milli-Q water at a concentration of 0.2 mg/mL for IV and at 0.5 mg/mL for PO. Two male Sprague-Dawley rats per arm were dosed with up to 5 compounds in cassette mode, which each compound being dosed at 1 mg/kg IV and 5 mg/kg PO. Blood was sampled at various timepoints and plasma isolated. 50 μL of plasma with 5 μL of blank Sprague-Dawley rat plasma were added to 200 μL of acetonitrile containing IS mixture. The samples were vortexed for 30 s. After centrifugation at 4 degrees Celsius, 3900 rpm for 15 min, the supernatant was diluted 3 times with water. 20 μL of diluted supernatant was injected into the LC/MS/MS system for quantitative analysis and concentration of analyte determined by comparison with matrix matched standard curve. WinNonlin (Phoenix™, version 8.3) or other similar software may be used for pharmacokinetic calculations.
# [2] = tested on: collagen-induced arthritis in Lewis rats; experiment: Collagen-induced arthritis (CIA) model in rats: body weight, paw volume, clinical scores, clinical observations; settings: for Average animal paw volume percent change / Average detailed clinical score, left forelimb / Average detailed clinical score, left hind limb / Average detailed clinical score, right forelimb / Average detailed clinical score, right hind limb / Average detailed clinical score, score / Mean overall clinical score ± SD / animals showing signs of disease (of 8): CIA rats; for Mean animal paw volume (mL) ± SD: group mean, CIA + reference compound (Groups 3, 4); for animals showing signs of disease (of 8): daily P.O. As to Detailed Clinical Scores, left forelimb: key of the grades not given here. As to Detailed Clinical Scores, left hind limb: key of the grades not given here. As to Detailed Clinical Scores, right forelimb: key of the grades not given here. As to Detailed Clinical Scores, right hind limb: key of the grades not given here. As to Detailed Clinical Scores, score: key of the grades not given here.
# [3] = tested on: collagen-induced arthritis in Lewis rats; experiment: CIA model: histopathologic analysis of H&E-stained hind limbs; type: in vivo, Lewis rat; settings: CIA rats
# Description: Hind limbs were collected following euthanasia, with the left limb being used for H&E staining.
# H&E-stained slides of designated tissues from animals were transferred to an independent pathologist for microscopic evaluation (SPFBio). Samples were assigned the histologic grades based on the severity of change from tissue where CIA was not induced. Histology grades assigned were as follows: grade 1 (minimal change), grade 2 (mild change), grade 3 (moderate change), grade 4 (marked change), and grade 5 (severe change).
# Moderate inflammation was also associated with increased edema fluid, fibrin, and cellular debris. Marked mixed cell inflammation was characterized by dense, widespread accumulations of neutrophils and macrophages with lesser number of lymphocytes within one or more joint spaces, synovium and periarticular soft tissues. Marked inflammation was also associated with abundant edema fluid, fibrin, and cellular debris.
# Marked granulation tissue (pannus) was associated with inflammation and was characterized by widespread fibrovascular connective tissue that expanded/replaced the periarticular soft tissues of one or more joints, extended into/expanded joint spaces, was contiguous with areas of erosion/ulcer in articular cartilage and/or increased eroded surface of bone, and variably extended along the diaphysis.
# Instances of minimal increased eroded surface were not associated with fragments of bone contiguous and/or surrounded by granulation tissue. […] In some areas, increased eroded surfaces were contiguous with areas of erosion/ulcer in the articular cartilages. Instance of marked increased eroded surface were often associated with fragments of bone contiguous with and/or surrounded by granulation tissue.
# This observation was typically most pronounced at joint margins (transition zone). The ulceration was often associated with inflammation and granulation tissue extending through the defect to the subchondral bone.
# Marked increased periosteal bone (periosteal bone formation) was characterized by extensive areas of increased bone matrix and numerous prominent osteoblasts lining trabecular surfaces along the metaphysis and/or diaphysis of one or more bones. In some areas, increased periosteal bone was contiguous with increased eroded surface and/or erosion/ulcer at articular cartilage.
structure (smiles),measurement,setting,value
"CCNC(=O)c1cc(OC(C)c2ccc(Cl)cc2)c(C(=O)NC)[nH]1 (single isomer, unassigned) [Example 18, 3-(1-(4-chlorophenyl)ethoxy)-N^5-ethyl-N^2-methyl-1H-pyrrole-2,5-dicarboxamide]",IV T1/2,[1],66 min
same,PO F (%),[1],30%
"CCNC(=O)c1cc(OC(C)c2ccccc2F)c(C(=O)NC)[nH]1 (single isomer, unassigned) [Example 20, N^5-ethyl-3-(1-(2-fluorophenyl)ethoxy)-N^2-methyl-1H-pyrrole-2,5-dicarboxamide]",IV T1/2,[1],24 min
same,PO F (%),[1],46%
"CNC(=O)c1[nH]c(C(=O)N[C@H]2CC[C@H](O)CC2)cc1OC(C)c1ccc(Cl)cc1F (single isomer, unassigned) [Example 38, 3-(1-(4-chloro-2-fluorophenyl)ethoxy)-N^5-(trans-4-hydroxycyclohexyl)-N^2-methyl-1H-pyrrole-2,5-dicarboxamide]",IV T1/2,[1],84 min
same,PO F (%),[1],66%
"CCNC(=O)c1cc(OC(C)c2ccc(Cl)cc2F)c(C(=O)NC)[nH]1 (single isomer, unassigned) [Example 41, 3-(1-(4-chloro-2-fluorophenyl)ethoxy)-N^5-ethyl-N^2-methyl-1H-pyrrole-2,5-dicarboxamide]",IV T1/2,[1],18 min
same,PO F (%),[1],69%
"CNC(=O)c1[nH]c(C(=O)N[C@H]2CC[C@H](O)CC2)cc1OC(C)c1ccccc1 (single isomer, unassigned) [Example 98, N^5-(trans-4-hydroxycyclohexyl)-N^2-methyl-3-(1-phenylethoxy)-1H-pyrrole-2,5-dicarboxamide]",bioavailability,[1],31%
"CNC(=O)c1[nH]c(C(=O)NC2CCC2)cc1OC(C)c1ccccc1 (single isomer, unassigned) [Example 102, N^5-cyclobutyl-N^2-methyl-3-(1-phenylethoxy)-1H-pyrrole-2,5-dicarboxamide]",bioavailability,[1],13%
C[C@@H]1C[C@H]2[C@@H]3CCC4=CC(=O)C=C[C@]4(C)[C@@]3(F)[C@@H](O)C[C@]2(C)[C@@]1(O)C(=O)CO [Dex],Average animal paw volume percent change,"[2]; Day 0, L hind paw",0.00%
same,Mean animal paw volume (mL) ± SD,"[2]; Day 0, L paw",1.33 mL
same,Average animal paw volume percent change,"[2]; Day 0, R hind paw",0.00%
same,Mean animal paw volume (mL) ± SD,"[2]; Day 0, R paw",1.33 mL
same,"Average detailed clinical score, left forelimb",[2]; Day 0,0.00
same,"Average detailed clinical score, left hind limb",[2]; Day 0,0.00
same,"Average detailed clinical score, right forelimb",[2]; Day 0,0.00
same,"Average detailed clinical score, right hind limb",[2]; Day 0,0.00
same,"Average detailed clinical score, score",[2]; Day 0,0.00
same,Mean overall clinical score ± SD,[2]; Day 0,0 ± 0
same,Mean animal paw volume (mL) ± SD,"[2]; Day 6, L paw",1.29 mL
same,Mean animal paw volume (mL) ± SD,"[2]; Day 6, R paw",1.29 mL
same,"Average detailed clinical score, left forelimb",[2]; Day 6,0.00
same,"Average detailed clinical score, left hind limb",[2]; Day 6,0.00
same,"Average detailed clinical score, right forelimb",[2]; Day 6,0.00
same,"Average detailed clinical score, right hind limb",[2]; Day 6,0.00
same,"Average detailed clinical score, score",[2]; Day 6,0.00
same,Mean overall clinical score ± SD,[2]; Day 6,0 ± 0
same,Mean animal paw volume (mL) ± SD,"[2]; Day 12, L paw",1.27 mL
same,Mean animal paw volume (mL) ± SD,"[2]; Day 12, R paw",1.26 mL
same,"Average detailed clinical score, left forelimb",[2]; Day 12,0.00
same,"Average detailed clinical score, left hind limb",[2]; Day 12,0.00
same,"Average detailed clinical score, right forelimb",[2]; Day 12,0.00
same,"Average detailed clinical score, right hind limb",[2]; Day 12,0.00
same,"Average detailed clinical score, score",[2]; Day 12,0.00
same,Mean overall clinical score ± SD,[2]; Day 12,0 ± 0
same,Mean animal paw volume (mL) ± SD,"[2]; Day 13, L paw",1.28 mL
same,Mean animal paw volume (mL) ± SD,"[2]; Day 13, R paw",1.28 mL
same,"Average detailed clinical score, left forelimb",[2]; Day 13,0.00
same,"Average detailed clinical score, left hind limb",[2]; Day 13,0.00
same,"Average detailed clinical score, right forelimb",[2]; Day 13,0.00
same,"Average detailed clinical score, right hind limb",[2]; Day 13,0.00
same,"Average detailed clinical score, score",[2]; Day 13,0.00
same,Mean overall clinical score ± SD,[2]; Day 13,0 ± 0
same,Average animal paw volume percent change,"[2]; Day 14, L hind paw",−4.60%
same,Mean animal paw volume (mL) ± SD,"[2]; Day 14, L paw",1.27 mL
same,Mean animal paw volume (mL) ± SD,"[2]; Day 14, R paw",1.26 mL
same,"Average detailed clinical score, left forelimb",[2]; Day 14,0.00
same,"Average detailed clinical score, left hind limb",[2]; Day 14,0.00
same,"Average detailed clinical score, right forelimb",[2]; Day 14,0.00
same,"Average detailed clinical score, right hind limb",[2]; Day 14,0.00
same,"Average detailed clinical score, score",[2]; Day 14,0.00
same,Mean overall clinical score ± SD,[2]; Day 14,0 ± 0
same,Mean animal paw volume (mL) ± SD,"[2]; Day 15, L paw",1.26 mL
same,Mean animal paw volume (mL) ± SD,"[2]; Day 15, R paw",1.26 mL
same,"Average detailed clinical score, left forelimb",[2]; Day 15,0.00
same,"Average detailed clinical score, left hind limb",[2]; Day 15,0.00
same,"Average detailed clinical score, right forelimb",[2]; Day 15,0.00
same,"Average detailed clinical score, right hind limb",[2]; Day 15,0.00
same,"Average detailed clinical score, score",[2]; Day 15,0.00
same,Mean overall clinical score ± SD,[2]; Day 15,0 ± 0
same,Mean animal paw volume (mL) ± SD,"[2]; Day 18, L paw",1.29 mL
same,Mean animal paw volume (mL) ± SD,"[2]; Day 18, R paw",1.29 mL
same,"Average detailed clinical score, left forelimb",[2]; Day 18,0.00
same,"Average detailed clinical score, left hind limb",[2]; Day 18,0.00
same,"Average detailed clinical score, right forelimb",[2]; Day 18,0.00
same,"Average detailed clinical score, right hind limb",[2]; Day 18,0.00
same,"Average detailed clinical score, score",[2]; Day 18,0.00
same,Mean overall clinical score ± SD,[2]; Day 18,0 ± 0
same,Mean animal paw volume (mL) ± SD,"[2]; Day 19, L paw",1.29 mL
same,Mean animal paw volume (mL) ± SD,"[2]; Day 19, R paw",1.28 mL
same,"Average detailed clinical score, left forelimb",[2]; Day 19,0.00
same,"Average detailed clinical score, left hind limb",[2]; Day 19,0.00
same,"Average detailed clinical score, right forelimb",[2]; Day 19,0.00
same,"Average detailed clinical score, right hind limb",[2]; Day 19,0.00
same,"Average detailed clinical score, score",[2]; Day 19,0.00
same,Mean overall clinical score ± SD,[2]; Day 19,0 ± 0
same,Mean animal paw volume (mL) ± SD,"[2]; Day 21, L paw",1.28 mL
same,Mean animal paw volume (mL) ± SD,"[2]; Day 21, R paw",1.29 mL
same,"Average detailed clinical score, left forelimb",[2]; Day 21,0.00
same,"Average detailed clinical score, left hind limb",[2]; Day 21,0.00
same,"Average detailed clinical score, right forelimb",[2]; Day 21,0.00
same,"Average detailed clinical score, right hind limb",[2]; Day 21,0.00
same,"Average detailed clinical score, score",[2]; Day 21,0.00
same,Mean overall clinical score ± SD,[2]; Day 21,0 ± 0
CNC(=O)c1cc(C(=O)NC2CC2)cn(Cc2ccccc2)c1=O [GSK620],erosion/ulcer in the articular cartilage,[3]; daily P.O. (Group 4),mild to moderate
same,granulation tissue (pannus),[3]; daily P.O. (Group 4),mild to moderate
same,increased eroded surface of bone (bone resorption),[3]; daily P.O. (Group 4),minimal to moderate
same,increased periosteal bone (periosteal bone formation),[3]; daily P.O. (Group 4),mild to moderate
same,mixed cell inflammation,[3]; daily P.O. (Group 4),moderate
same,pathologic observations after microscopic evaluation (overall),[3]; daily P.O. for 21 days,at a lower level relative to samples from animals in the CIA-induced group
same,animals showing signs of disease (of 8),[2]; day 12,No animals
same,animals showing signs of disease (of 8),[2]; day 13,1/8
same,animals showing signs of disease (of 8),[2]; day 14,5/8
same,animals showing signs of disease (of 8),[2]; day 15,7/8
same,animals showing signs of disease (of 8),[2]; day 18,all animals
same,"Detailed Clinical Scores, left forelimb","[2]; Day 0, CIA, per animal ID",0
same,"Detailed Clinical Scores, left hind limb","[2]; Day 0, CIA, per animal ID",0
same,"Detailed Clinical Scores, right forelimb","[2]; Day 0, CIA, per animal ID",0
same,"Detailed Clinical Scores, right hind limb","[2]; Day 0, CIA, per animal ID",0
same,"Detailed Clinical Scores, score","[2]; Day 0, CIA, per animal ID",0
same,"Detailed Clinical Scores, left forelimb","[2]; Day 6, CIA, per animal ID",0
same,"Detailed Clinical Scores, right forelimb","[2]; Day 6, CIA, per animal ID",0
same,"Detailed Clinical Scores, left forelimb","[2]; Day 12, CIA, per animal ID",0
same,"Detailed Clinical Scores, right forelimb","[2]; Day 12, CIA, per animal ID",0

# Reference: patent US20260000642A1 (Tay Therapeutics Limited, priority 2022, published 2026)
